In patent US20230285337A1, “LONG ACTING ANTICANCER COMPOSITIONS” (INTRAGEL THERAPEUTICS LTD., priority 2020, published 2023):

Legend:
[1] = rat, in vivo, iv, 5 mg/kg
Description: Polymer-cisplatin was injected subcutaneously to mice at the amount 10, 20, 40 µL per mice that is 4, 8, 16 mg cisplatin/Kg. As controls, 50µL of the drug free polymer was injected and 200 µL IV injection at a dose of 5 mg/kg. The mice were observed daily for morbidity and mortality, and daily for general clinical signs (cage side observation): changes in the skin, fur, eyes, nose, mouth, head, respiration, urine, feces, locomotor, and overall wellness.
An animal showing one of the humane endpoints according to Clinical Signs″, SOP-06-019, were euthanized and subjected to the termination procedure. Blood collection for cisplatin content was at 0(baseline), 1 h, 4 h, 8 h, 24 h,48 h,96 h, 168 h, thereafter once weekly until week 4. Blood for CBC and Biochemistry was at: 0(Baseline), 24 h, 72 h, 168 h thereafter once weekly until sacrifice. For the IV injected mice, plasma was collected at 0(baseline), 5 m, 15 m, 30 m, 1 h, 2 h, 4 h, 8 h, 24 h, 48 h, 72 h, and 96 h. Whole blood and Blood Biochemistry was at 0(Baseline), 24h and 96h. Whole blood was collected from each animal and treated according to common procedures. Urine collection amount was recorded at 0-6, 12-24, 48-72h, 72-96h, 96-120h and once weekly thereafter.

[2] = system: Head and Neck Cancer tumor cells; assay: In vivo testing of the cisplatin formulation for head and neck cancer with radiotherapy; details: nude mice, treatment 20 days after cell injection, 8 Gy irradiation at day 21 and 24, terminated day 50
Description: In this study, 3 experimental groups were used, 6 nude mice per group. All mice were injected with 600000 tumor cells. […] Cisplatin solutions were injected IP for 4 consecutive weeks, a total of 4 administrations. The animals were irradiated with 8 Gy at day 21 and day 24. The experiment was terminated at day 50.

Question: Which results are given for `[NH2][Pt]([NH2])([Cl])[Cl]` [cisplatin solution, Cisplatin]?
Answer: blood count (HGB, RBG & HCT) [1]: drastic drop in markers; body weight [1]: lower body weight; kidneys performance (creatinine and urea excretion) [1]: deteriorated kidneys performance; side effects, behaviour after injection [1]: severe side effects; effect on the tumor (tumor size) [2]: did not show any effect on the tumor
